One series deals with NRF2. The series is described as follows: NRF2 activation assay (DiscoverX PathHunter NRF2 translocation kit, U2OS cells). It counts as cell-based. The note with it: Homo sapiens; for Emax: U2OS, normalised to dimethyl fumarate high control; for pEC50: U2OS PathHunter cells, 6 hours.
The nature of series [1]: Hepatocyte stability assay, human. Format: in vitro ADME. The following applies: 10 μM compound, 0.5×10^6 cells/mL, 60 min; for CIint: Human hepatocytes; for half-life at 10 μM: cryo-preserved hepatocytes, read-out: T½. From the text:
(§1) Defrosted cryo-preserved hepatocytes (viability >70%) were used to determine the metabolic stability of a compound via calculation of intrinsic clearance (CIint; a measure of the removal of a compound from the liver in the absence of blood flow and cell binding). Clearance data are particularly important for in vitro work as they can be used in combination with in vivo data to predict the half-life and oral bioavailability of a drug.
(§2) The metabolic stability in hepatocytes assay involved a time-dependent reaction using both positive and negative controls. The cells must be pre-incubated at 37° C. then spiked with test compound (and positive control); samples taken at pre-determined time intervals were analysed to monitor the change in concentration of the initial drug compound over 60 minutes. A buffer incubation reaction (with no hepatocytes present) acted as a negative control and two cocktail solutions, containing compounds with known high and low clearance values (verapamil/7-hydroxycoumarin and propranolol/diltiazem), acted as positive controls. • 1. The assay was run with a cell concentration of 0.5×10^6 cells/mL in Leibovitz buffer. • 2. All compounds and controls were run in duplicate. • 3. Compound concentration was 10 μM. • 4. All compounds and controls were incubated with both cells and buffer to show turnover is due to hepatic metabolism. • 5. All wells on the incubation plate had 326.7 μL of either cells or buffer added. • 6. Prior to assay, cell and buffer-only incubation plates were preincubated for 10 mins at 37° C. • 7. The assay was initiated by adding compounds, 3.3 μL of 1 mM in 10% DMSO-90% Buffer; final DMSO concentration is 0.1%. • 8. Samples were taken at regular timepoints (0, 5, 10, 20, 40, 60 min) until 60 mins. • 9. Sample volume was 40 μL and added to 160 μL of crash solvent (acetonitrile with internal standard) and stored on ice. • 10. At the end of the assay, the crash plates were centrifuged at 3500 rpm for 20 mins at 4° C. • 11. 80 μL of clear supernatant was removed and mixed with 80 μL of deionised water before being analysed by LC-MS/MS.
(§3) Raw LC-MS/MS data were exported to, and analysed in, Microsoft Excel for determination of intrinsic clearance. The percentage remaining of a compound was monitored using the peak area of the initial concentration as 100%. Intrinsic clearance and half-life values were calculated using a graph of the natural log of percentage remaining versus the time of reaction in minutes.

A further series concerns IL-6. The series is described as follows: THP-1 AlphaLISA IL-6 cytokine assay (PMA-differentiated THP-1, LPS then nigericin). Format: cell-based. The note with it: Homo sapiens; differentiated THP-1 cells; 30 min pre-incubation, LPS 24 hr, nigericin 1 hour. How it is done: (§4) Measuring Inhibitory Effects on IL-1β, and IL-6 Cytokine Output from THP-1s
(§5) The cytokine inhibition profiles of compounds of formula (I) were determined in a differentiated THP-1 cell assay. All assays were performed in RPMI-1640 growth medium (Gibco), supplemented with 10% fetal bovine serum (FBS; Gibco), 1% penicillin-streptomycin and 1% sodium pyruvate unless specified otherwise. The IL-1β and IL-6 cytokine inhibition assays were each run in a background of differentiated THP-1 cells as described below. All reagents described were from Sigma-Aldrich unless specified otherwise. Compounds were prepared as 10 mM DMSO stocks.
(§6) THP-1 cells were expanded as a suspension up to 80% confluence in appropriate growth medium. Cells were harvested, suspended, and treated with an appropriate concentration of phorbol 12-myristate 13-acetate (PMA) over a 72 hr period (37° C./5% CO2).
(§7) Following 72 hrs of THP-1 cell incubation, cellular medium was removed and replaced with fresh growth media containing 1% of FBS. Working concentrations of compounds were prepared separately in 10% FBS treated growth medium and pre-incubated with the cells for 30 minutes (37° C./5% CO2). Following the 30 minute compound pre-incubation, THP-1s were treated with an appropriate concentration of LPS and the THP-1s were subsequently incubated for a 24 hr period (37° C./5% CO2). An appropriate final concentration of Nigericin was then dispensed into the THP-1 plates and incubated for 1 hour (37° C./5% CO2) before THP-1 supernatants were harvested and collected in separate polypropylene 96-well holding plates.
(§8) Reagents from each of the IL-1β and IL-6 commercial kits (Perkin Elmer) were prepared and run according to the manufacturer's instructions. Subsequently, fluorescence signal detection in a microplate reader was measured (EnVision® Multilabel Reader, Perkin Elmer).
(§9) Percentage inhibition was calculated per cytokine by normalizing the sample data to the high and low controls used within each plate (+/−LPS respectively).
Background: Alpha assays give light when donor and acceptor beads are brought close together.

Series [2] in a line: Hepatocyte stability assay, mouse. Format: in vitro ADME. The following applies: 10 μM compound, 0.5×10^6 cells/mL, 60 min; for CIint: Mouse hepatocytes; for half-life at 10 μM: cryo-preserved hepatocytes, read-out: T½.
Description: as §1, §2, §3

A further series relates to IL-1β. The series is described as follows: THP-1 AlphaLISA IL-1β cytokine assay (PMA-differentiated THP-1, LPS then nigericin). The note with it: Homo sapiens, THP-1, differentiated THP-1 cells; 30 min pre-incubation, LPS 24 hr, nigericin 1 hour. Format: cell-based. The method, then:
as §4, §5, §6, §7, §8, §9

Molecules are shown by their SMILES. pEC50, pIC50: −log10 of the molar value.

From patent publication US20240360067A1, “DERIVATIVES OF ITACONIC ACID AND THEIR USE AS ANTI-INFLAMMATORY AGENTS” (Sitryx Therapeutics Limited, priority 2021, published 2024) come the findings set out here.

For orientation: Emax means the size of the effect at its maximum, as opposed to the concentration needed. A word on the pEC50: it is the negative decadic logarithm of the EC50, by convention in mol/L. What is called pIC50 is the IC50 on a negative log10 scale, so that one unit is a factor of ten. A low value points to a high IC50.

As for `C/C(=C\C(=O)O)C(=O)OC1(c2ccc(C(F)(F)F)cc2)CCC1` [Example 23, 3-methyl-4-oxo-4-(1-(4-(trifluoromethyl)phenyl)cyclobutoxy)but-2-enoic acid], the figures for the Emax in the series on NRF2 (+GSH) and with NRF2 (−GSH) were 4% and 39%, respectively. Also, the pEC50 was less than 4.00 in the series on NRF2 (+GSH) and 5.55 in the series on NRF2 (−GSH). Further, the CIint in series [1] and in series [2] was less than 3 μL min^−1 10^−6 cells each time. The half-life at 10 μM in series [1] and in series [2] was greater than 460 min each time. In addition, the pIC50 with IL-6 is less than 4.00; in the series with IL-1β, 5.40.

For the compound `C=C(CC(=O)NCc1ncc[nH]1)C(=O)OC1(c2ccc(C(F)(F)F)cc2)CCC1` [Example 15, 1-(4-(trifluoromethyl)phenyl)cyclobutyl 4-(((1H-imidazol-2-yl)methyl)amino)-2-methylene-4-oxobutanoate], the Emax was found to be 86% with NRF2 (+GSH) and 131% in the series with NRF2 (−GSH). For the same compound, the pEC50 in the series with NRF2 (+GSH) is 4.29; in the series on NRF2 (−GSH) it was 4.58. The CIint in series [1] is given as 92 μL min^−1 10^−6 cells; in series [2] it was 508 μL min^−1 10^−6 cells. Besides, the results for the half-life at 10 μM in series [1] and in series [2] were 14 min and 3 min, respectively. For the same compound, the pIC50 in the series on IL-6 is 5.14; in the series on IL-1β it was 5.28.
